According to US20250049748A1, “ANALOGS OF 4-BROMO-2,5-DIMETHOXYPHENETHYLAMINE” (Terran Biosciences Inc., priority 2021, published 2025):

Experiment: Pharmacokinetic study in rats: plasma 2C-B after IV/PO 2C-B or PO 2C-B prodrugs
[1] = oral dosing of 2C-B prodrug, rat, time 0.500 h, individual animal
[2] = oral dosing of 2C-B prodrug, rat, time 0.500 h, mean
[3] = oral dosing of 2C-B prodrug, rat, time 1.00 h, individual animal
[4] = oral dosing of 2C-B prodrug, rat, time 1.00 h, mean
[5] = oral dosing of 2C-B prodrug, rat, time 2.00 h, individual animal
[6] = oral dosing of 2C-B prodrug, rat, time 2.00 h, mean
[7] = oral dosing of 2C-B prodrug, rat, time 4.00 h, individual animal
[8] = oral dosing of 2C-B prodrug, rat, time 4.00 h, mean
[9] = oral dosing of 2C-B prodrug, rat, time 7.00 h, individual animal
[10] = oral dosing of 2C-B prodrug, rat, time 7.00 h, mean
[11] = oral dosing of 2C-B prodrug, rat, time 24.0 h, individual animal
[12] = oral dosing of 2C-B prodrug, rat, time 24.0 h, mean

SMILES	Plasma Concentrations of metabolite 2C-B Following Oral Dosing [1]	Plasma Concentrations of metabolite 2C-B Following Oral Dosing [2]	Plasma Concentrations of metabolite 2C-B Following Oral Dosing [3]	Plasma Concentrations of metabolite 2C-B Following Oral Dosing [4]	Plasma Concentrations of metabolite 2C-B Following Oral Dosing [5]	Plasma Concentrations of metabolite 2C-B Following Oral Dosing [6]	Plasma Concentrations of metabolite 2C-B Following Oral Dosing [7]	Plasma Concentrations of metabolite 2C-B Following Oral Dosing [8]	Plasma Concentrations of metabolite 2C-B Following Oral Dosing [9]	Plasma Concentrations of metabolite 2C-B Following Oral Dosing [10]	Plasma Concentrations of metabolite 2C-B Following Oral Dosing [11]	Plasma Concentrations of metabolite 2C-B Following Oral Dosing [12]	other results
COc1cc(CCNC(=O)CN(C)C(=O)[C@H](Cc2ccccc2)NC(=O)OC(C)(C)C)c(OC)cc1Br [Example 10, tert-butyl (S)-(1-((2-((4-bromo-2,5-dimethoxyphenethyl)amino)-2-oxoethyl)(methyl)amino)-1-oxo-3-phenylpropan-2-yl)carbamate]	BLQ (BLQ: Below Lower Limit of Quanification (0.5 ng/mL))	BLQ (BLQ: Below Lower Limit of Quanification (0.5 ng/mL))	BLQ (BLQ: Below Lower Limit of Quanification (0.5 ng/mL))	BLQ (BLQ: Below Lower Limit of Quanification (0.5 ng/mL))	BLQ (BLQ: Below Lower Limit of Quanification (0.5 ng/mL))	BLQ (BLQ: Below Lower Limit of Quanification (0.5 ng/mL))	BLQ (BLQ: Below Lower Limit of Quanification (0.5 ng/mL))	BLQ (BLQ: Below Lower Limit of Quanification (0.5 ng/mL))	BLQ (BLQ: Below Lower Limit of Quanification (0.5 ng/mL))	BLQ (BLQ: Below Lower Limit of Quanification (0.5 ng/mL))	BLQ (BLQ: Below Lower Limit of Quanification (0.5 ng/mL))	BLQ (BLQ: Below Lower Limit of Quanification (0.5 ng/mL))	
CCOC(=O)C1=C(C(=O)NCCc2cc(OC)c(Br)cc2OC)CCC1 [Example 36, Ethyl 2-((4-bromo-2,5-dimethoxyphenethyl)carbamoyl)cyclopent-1-ene-1-carboxylate]	BLQ (BLQ: Below Lower Limit of Quanification (0.5 ng/mL))	BLQ (BLQ: Below Lower Limit of Quanification (0.5 ng/mL))	BLQ (BLQ: Below Lower Limit of Quanification (0.5 ng/mL))	BLQ (BLQ: Below Lower Limit of Quanification (0.5 ng/mL))	BLQ (BLQ: Below Lower Limit of Quanification (0.5 ng/mL))	BLQ (BLQ: Below Lower Limit of Quanification (0.5 ng/mL))	BLQ (BLQ: Below Lower Limit of Quanification (0.5 ng/mL))	BLQ (BLQ: Below Lower Limit of Quanification (0.5 ng/mL))	BLQ (BLQ: Below Lower Limit of Quanification (0.5 ng/mL))	BLQ (BLQ: Below Lower Limit of Quanification (0.5 ng/mL))	BLQ (BLQ: Below Lower Limit of Quanification (0.5 ng/mL))	BLQ (BLQ: Below Lower Limit of Quanification (0.5 ng/mL))	
COc1cc(CCNC(C)=O)c(OC)cc1Br [Example 4, N-(4-bromo-2,5-dimethoxyphenethyl)acetamide]													Plasma Concentrations of metabolite 2C-B Following Oral Dosing (prodrug oral 10 mg/kg, male SD rats, time 0.500 h, individual animals): BLQ (BLQ: Below Lower Limit of Quanification (0.5 ng/mL)); Plasma Concentrations of metabolite 2C-B Following Oral Dosing (prodrug oral 10 mg/kg, male SD rats, time 0.500 h, mean): BLQ (BLQ: Below Lower Limit of Quanification (0.5 ng/mL)); Plasma Concentrations of metabolite 2C-B Following Oral Dosing (prodrug oral 10 mg/kg, male SD rats, time 1.00 h, individual animals): BLQ (BLQ: Below Lower Limit of Quanification (0.5 ng/mL)); Plasma Concentrations of metabolite 2C-B Following Oral Dosing (prodrug oral 10 mg/kg, male SD rats, time 1.00 h, mean): BLQ (BLQ: Below Lower Limit of Quanification (0.5 ng/mL)); Plasma Concentrations of metabolite 2C-B Following Oral Dosing (prodrug oral 10 mg/kg, male SD rats, time 2.00 h, individual animals): BLQ (BLQ: Below Lower Limit of Quanification (0.5 ng/mL)); Plasma Concentrations of metabolite 2C-B Following Oral Dosing (prodrug oral 10 mg/kg, male SD rats, time 2.00 h, mean): BLQ (BLQ: Below Lower Limit of Quanification (0.5 ng/mL)); Plasma Concentrations of metabolite 2C-B Following Oral Dosing (prodrug oral 10 mg/kg, male SD rats, time 4.00 h, individual animals): BLQ (BLQ: Below Lower Limit of Quanification (0.5 ng/mL)); Plasma Concentrations of metabolite 2C-B Following Oral Dosing (prodrug oral 10 mg/kg, male SD rats, time 4.00 h, mean): BLQ (BLQ: Below Lower Limit of Quanification (0.5 ng/mL)); Plasma Concentrations of metabolite 2C-B Following Oral Dosing (prodrug oral 10 mg/kg, male SD rats, time 7.00 h, individual animals): BLQ (BLQ: Below Lower Limit of Quanification (0.5 ng/mL)); Plasma Concentrations of metabolite 2C-B Following Oral Dosing (prodrug oral 10 mg/kg, male SD rats, time 7.00 h, mean): BLQ (BLQ: Below Lower Limit of Quanification (0.5 ng/mL)); Plasma Concentrations of metabolite 2C-B Following Oral Dosing (prodrug oral 10 mg/kg, male SD rats, time 24.0 h, individual animals): BLQ (BLQ: Below Lower Limit of Quanification (0.5 ng/mL)); Plasma Concentrations of metabolite 2C-B Following Oral Dosing (prodrug oral 10 mg/kg, male SD rats, time 24.0 h, mean): BLQ (BLQ: Below Lower Limit of Quanification (0.5 ng/mL))
